Like-named read-outs stand apart in the source and are kept apart here.
What was measured:
[1] = target: T1, catalytic domain of human Bub1 (amino acids 704-1085) (Homo sapiens, UniProt O43683); test: Bub1 kinase assay (TR-FRET); assay type: biochemical
T1 construct: catalytic domain of human Bub1 (amino acids 704-1085); His6 (N); made in house; host or cells: Hi5 insect cells
Protocol: To this end, 100-fold concentrated compound solutions (in DMSO) were previously prepared by serial dilution (1:3.4) of 2 mM stocks in a clear low volume 384-well source microtiter plate (Greiner Bio-One, Frickenhausen, Germany), from which 50 nl of compounds were transferred into a black low volume test microtiter plate from the same supplier. […] The resulting mixture (5 μL final volume) was incubated at 22° C. during 60 min., and the reaction was stopped by the addition of 5 μL of an aqueous EDTA-solution (50 mM EDTA, in 100 mM HEPES pH 7.5 and 0.2% (w/v) bovine serum albumin) which also contained the TR-FRET detection reagents (0.2 μM streptavidin-XL665 [Cisbio Bioassays, Codolet, France] and 1 nM anti-phosho-Serine antibody [Merck Millipore, cat. #35-001] and 0.4 nM LANCE EU-W1024 labeled anti-mouse IgG antibody [Perkin-Elmer, product no. AD0077, alternatively a Terbium-cryptate-labeled anti-mouse IgG antibody from Cisbio Bioassays can be used]). The stopped reaction mixture was further incubated 1 h at 22° C. in order to allow the formation of complexes between peptides and detection reagents. Subsequently, the amount of product was evaluated by measurement of the resonance energy transfer from the Eu-chelate-antibody complex recognizing the Phosphoserine residue to the streptavidin-XL665 bound to the biotin moiety of the peptide. […] IC50 values were calculated by fitting the normalized inhibition data to a 4-parameter logistic equation (Minimum, Maximum, IC50, Hill; Y=Max+(Min−Max)/(1+(X/IC50)Hill)).

HeLa cell line = test: Proliferation assay (HeLa cell line), crystal violet staining; assay type: cell-based; conditions: Homo sapiens, 96 h, read-out: Biological Assay 2: Proliferation assay (HeLa cell line) median IC50
Protocol: Cultivated tumor cells (cells were ordered from ATCC, except HeLa-MaTu and HeLa-MaTu-ADR, which were ordered from EPO-GmbH, Berlin) were plated at a density of 1000 to 5000 cells/well, depending on the growth rate of the respective cell line, in a 96-well multititer plate in 200 μL of their respective growth medium supplemented 10% fetal calf serum. After 24 hours, the cells of one plate (zero-point plate) were stained with crystal violet (see below), while the medium of the other plates was replaced by fresh culture medium (200 μL), to which the test substances were added in various concentrations (0 μM, as well as in the range of 0.001-10 μM; the final concentration of the solvent dimethyl sulfoxide was 0.5%). The cells were incubated for 4 days in the presence of test substances. Cell proliferation was determined by staining the cells with crystal violet: the cells were fixed by adding 20 μl/measuring point of an 11% glutaric aldehyde solution for 15 minutes at room temperature. After three washing cycles of the fixed cells with water, the plates were dried at room temperature. The cells were stained by adding 100 μl/measuring point of a 0.1% crystal violet solution (pH 3.0). After three washing cycles of the stained cells with water, the plates were dried at room temperature. The dye was dissolved by adding 100 μl/measuring point of a 10% acetic acid solution. Absorption was determined by photometry at a wavelength of 595 nm. The change of cell number, in percent, was calculated by normalization of the measured values to the absorption values of the zero-point plate (=0%) and the absorption of the untreated (0 μm) cells (=100%). The IC50 values were determined by means of a 4 parameter fit using the company's own software.

[2] = TR-FRET, recombinant catalytic domain of human Bub1, ATP 10 μM, peptide substrate 1 μM, median value, read-out: Biological Assay 1: Bub1 kinase assay median IC50
[3] = HeLa cells, incubated for 4 days with test substance, crystal violet staining, median value

T1 sequence (O43683 704-1085): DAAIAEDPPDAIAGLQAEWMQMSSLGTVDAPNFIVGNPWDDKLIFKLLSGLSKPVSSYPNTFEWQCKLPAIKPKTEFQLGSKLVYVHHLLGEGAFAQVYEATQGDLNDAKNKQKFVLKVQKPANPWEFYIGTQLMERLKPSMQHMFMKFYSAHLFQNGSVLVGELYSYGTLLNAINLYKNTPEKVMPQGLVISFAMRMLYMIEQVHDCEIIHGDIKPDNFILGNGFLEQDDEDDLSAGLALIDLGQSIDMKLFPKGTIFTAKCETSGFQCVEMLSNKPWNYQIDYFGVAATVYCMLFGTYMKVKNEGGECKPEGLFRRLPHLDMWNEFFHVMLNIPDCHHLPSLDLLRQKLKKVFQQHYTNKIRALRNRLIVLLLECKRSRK

**Q.** Which IC50 [1, 2] does the source give for `CCOc1cc(F)c(Cn2nc(-c3cc(Nc4nnc[nH]4)ccn3)c3ccccc32)c(F)c1` [Example 2-8-2, 2-[1-(4-ethoxy-2,6-difluorobenzyl)-1H-indazol-3-yl]-N-(4H-1,2,4-triazol-3-yl)pyridin-4-amine] here?
**A.** 800 nM

**Q.** Which IC50 [1, 2] does the source give for `CCOc1cc(F)c(Cn2nc(-c3ncc(OC)c(Nc4ccnnc4)n3)c3ccccc32)c(F)c1` [Example 2-2-1, N-{2-[1-(4-ethoxy-2,6-difluorobenzyl)-1H-indazol-3-yl]-5-methoxypyrimidin-4-yl}pyridazin-4-amine] here?
**A.** 11 nM

**Q.** What about the IC50 (HeLa cell line; HeLa) of the same compound?
**A.** > 10000 nM

**Q.** With `CCOc1cc(F)c(Cn2nc(-c3cc(Nc4ccncn4)ncn3)c3ccccc32)c(F)c1` [Example 2-2-3, 6-[1-(4-ethoxy-2,6-difluorobenzyl)-1H-indazol-3-yl]-N-(pyrimidin-4-yl)pyrimidin-4-amine] as the compound, how does the IC50 [1, 2] read?
**A.** 25 nM

**Q.** And the IC50 (HeLa cell line; HeLa)?
**A.** 5000 nM

**Q.** `CCCc1ccc(Cn2nc(-c3ncc(OC)c(Nc4ccncn4)n3)c3ccccc32)cc1` [Example 2-3-1, 5-methoxy-2-[1-(4-propylbenzyl)-1H-indazol-3-yl]-N-(pyrimidin-4-yl)pyrimidin-4-amine] was tested. Which IC50 [1, 2] did it give?
**A.** 44 nM

**Q.** What about the IC50 (HeLa cell line; HeLa) of the same compound?
**A.** > 10000 nM

**Q.** What does the source list for `CCOc1cc(F)c(Cn2nc(-c3ncc(OC)c(Nc4ccc(F)cc4C(=O)NC)n3)c3ccccc32)c(F)c1` [Example 2-12-3, 2-({2-[1-(4-ethoxy-2,6-difluorobenzyl)-1H-indazol-3-yl]-5-methoxypyrimidin-4-yl}amino)-5-fluoro-N-methylbenzamide]?
**A.** IC50 [1, 2]: 6800 nM; IC50 (HeLa cell line; HeLa): 1200 nM

**Q.** What does the source list for `CCOc1cc(F)c(Cn2nc(-c3ncc(OC)c(Nc4ccc(O)cc4)n3)c3ccccc32)c(F)c1` [Example 2-4-1, 4-({2-[1-(4-ethoxy-2,6-difluorobenzyl)-1H-indazol-3-yl]-5-methoxypyrimidin-4-yl}amino)phenol]?
**A.** IC50 [1, 2]: 240 nM; IC50 (HeLa cell line; HeLa): 6900 nM

**Q.** What does the source list for `COc1ccc(Cn2nc(-c3ncc(OC)c(Nc4cccnc4)n3)c3ccccc32)cc1` [Example 2-1-3, 5-methoxy-2-[1-(4-methoxybenzyl)-1H-indazol-3-yl]-N-(pyridin-3-yl)pyrimidin-4-amine]?
**A.** IC50 [1, 2]: 2600 nM; IC50 (HeLa cell line; HeLa): 3600 nM

**Q.** For `Cn1cc(Nc2ccnc(-c3nn(Cc4ccccc4F)c4ccccc34)c2)cn1` [Example 2-6-4, 2-[1-(2-fluorobenzyl)-1H-indazol-3-yl]-N-(1-methyl-1H-pyrazol-4-yl)pyridin-4-amine], which IC50 [1] is on record?
**A.** 17000 nM

**Q.** How did the IC50 [1, 2] turn out when `CCOc1cc(F)c(Cn2nc(-c3cc(Nc4ncnn4CC)ccn3)c3ccccc32)c(F)c1` [Example 2-8-1, 2-[1-(4-ethoxy-2,6-difluorobenzyl)-1H-indazol-3-yl]-N-(1-ethyl-1H-1,2,4-triazol-5-yl)pyridin-4-amine] was run?
**A.** 120 nM

**Q.** `COc1ccc(Cn2nc(-c3ncc(OC)c(Nc4ccnn4C)n3)c3ccccc32)cc1` [Example 2-1-4, 5-methoxy-2-[1-(4-methoxybenzyl)-1H-indazol-3-yl]-N-(1-methyl-1H-pyrazol-5-yl)pyrimidin-4-amine] was tested. Which IC50 [1, 2] did it give?
**A.** 3300 nM

**Q.** Which IC50 [1, 2] does the source give for `Oc1cnc(-c2nn(Cc3ccccc3F)c3ccccc23)nc1Nc1ccncn1` [Example 2-9-1, 2-[1-(2-fluorobenzyl)-1H-indazol-3-yl]-4-(pyrimidin-4-ylamino)pyrimidin-5-ol] here?
**A.** 13 nM

**Q.** And the IC50 (HeLa cell line; HeLa)?
**A.** > 10000 nM

**Q.** How did the IC50 [1, 2] turn out when `COc1ccc(Cn2nc(-c3ncc(OC)c(Nc4ccc(F)cc4)n3)c3ccccc32)cc1` [Example 2-1-6, N-(4-fluorophenyl)-5-methoxy-2-[1-(4-methoxybenzyl)-1H-indazol-3-yl]pyrimidin-4-amine] was run?
**A.** 8800 nM

**Q.** Which IC50 [1, 2] does the source give for `CCOc1cc(F)c(Cn2nc(-c3ncc(OC)c(Nc4ccccc4)n3)c3ccccc32)c(F)c1` [Example 2-1-1, 2-[1-(4-ethoxy-2,6-difluorobenzyl)-1H-indazol-3-yl]-5-methoxy-N-phenylpyrimidin-4-amine] here?
**A.** 1500 nM

**Q.** What about the IC50 (HeLa cell line; HeLa) of the same compound?
**A.** > 10000 nM

**Q.** Which IC50 [1] does the source give for `CCOc1cc(F)c(Cn2nc(-c3ncc(OC)c(Nc4ccc(F)cc4C(=O)O)n3)c3ccccc32)c(F)c1` [Example 2-2-5, 2-({2-[1-(4-ethoxy-2,6-difluorobenzyl)-1H-indazol-3-yl]-5-methoxypyrimidin-4-yl}amino)-5-fluorobenzoic acid] here?
**A.** 180 nM

**Q.** Which IC50 [1, 2] does the source give for `CCOc1cc(F)c(Cn2nc(-c3ncc(OC)c(Nc4ccncn4)n3)c3ccccc32)c(F)c1` [Example 2-2-2, 2-[1-(4-ethoxy-2,6-difluorobenzyl)-1H-indazol-3-yl]-5-methoxy-N-(pyrimidin-4-yl)pyrimidin-4-amine] here?
**A.** 22 nM

**Q.** And the IC50 (HeLa cell line; HeLa)?
**A.** > 10000 nM

**Q.** Which results are given for `Fc1cccc(F)c1Cn1nc(-c2cc(Nc3ccncn3)ccn2)c2ccccc21` [Example 2-6-2, N-{2-[1-(2,6-difluorobenzyl)-1H-indazol-3-yl]pyridin-4-yl}pyrimidin-4-amine]?
**A.** IC50 [1]: 13 nM; IC50 (HeLa cell line; [3]): > 10000 nM

**Q.** What does the source list for `CCOc1cc(F)c(Cn2nc(-c3ncc(OC)c(Nc4cn[nH]c4)n3)c3ccccc32)c(F)c1` [Example 2-10-2, 2-[1-(4-ethoxy-2,6-difluorobenzyl)-1H-indazol-3-yl]-5-methoxy-N-(1H-pyrazol-4-yl)pyrimidin-4-amine]?
**A.** IC50 [1, 2]: 4.7 nM; IC50 (HeLa cell line; HeLa): > 10000 nM

**Q.** `COc1ccc(Cn2nc(-c3ncc(OC)c(Nc4ccccc4)n3)c3ccccc32)cc1` [Example 2-1-5, 5-methoxy-2-[1-(4-methoxybenzyl)-1H-indazol-3-yl]-N-phenylpyrimidin-4-amine] was tested. Which IC50 [1, 2] did it give?
**A.** 3700 nM

**Q.** How did the IC50 [1, 2] turn out when `CCOc1cc(F)c(Cn2nc(-c3cc(Nc4ccncn4)ccn3)c3ccccc32)c(F)c1` [Example 2-5-1, N-{2-[1-(4-ethoxy-2,6-difluorobenzyl)-1H-indazol-3-yl]pyridin-4-yl}pyrimidin-4-amine] was run?
**A.** 14 nM

**Q.** And the IC50 (HeLa cell line; HeLa)?
**A.** > 10000 nM

**Q.** What does the source list for `CCOc1cc(F)c(Cn2nc(-c3ncc(OC)c(Nc4ccccc4C(=O)NC)n3)c3ccccc32)c(F)c1` [Example 2-12-2, 2-({2-[1-(4-ethoxy-2,6-difluorobenzyl)-1H-indazol-3-yl]-5-methoxypyrimidin-4-yl}amino)-N-methylbenzamide]?
**A.** IC50 [1, 2]: 1100 nM; IC50 (HeLa cell line; HeLa): 1100 nM

**Q.** `CCOc1cc(F)c(Cn2nc(-c3ncc(OC)c(Nc4ccccc4C(=O)O)n3)c3ccccc32)c(F)c1` [Example 2-2-4, 2-({2-[1-(4-ethoxy-2,6-difluorobenzyl)-1H-indazol-3-yl]-5-methoxypyrimidin-4-yl}amino)benzoic acid] was tested. Which IC50 [1] did it give?
**A.** 290 nM

**Q.** For `Fc1ccc(Cn2nc(-c3cc(Nc4ccncn4)ccn3)c3ccccc32)c(F)c1` [Example 2-11-1, N-{2-[1-(2,4-difluorobenzyl)-1H-indazol-3-yl]-pyridin-4-yl}pyrimidin-4-amine], which IC50 [1] is on record?
**A.** 66 nM

**Q.** And the IC50 (HeLa cell line; [3])?
**A.** > 10000 nM

**Q.** `CCOc1cc(F)c(Cn2nc(-c3cc(Nc4ncncn4)ccn3)c3ccccc32)c(F)c1` [Example 2-5-2, N-{2-[1-(4-ethoxy-2,6-difluorobenzyl)-1H-indazol-3-yl]pyridin-4-yl}-1,3,5-triazin-2-amine] was tested. Which IC50 [1, 2] did it give?
**A.** 21 nM

**Q.** And the IC50 (HeLa cell line; HeLa)?
**A.** 2900 nM

**Q.** Which results are given for `CCOc1cc(F)c(Cn2nc(-c3ncc(OC)c(Nc4ccccc4C(N)=O)n3)c3ccccc32)c(F)c1` [Example 2-12-1, 2-({2-[1-(4-ethoxy-2,6-difluorobenzyl)-1H-indazol-3-yl]-5-methoxypyrimidin-4-yl}amino)benzamide]?
**A.** IC50 [1, 2]: 920 nM; IC50 (HeLa cell line; HeLa): > 10000 nM

**Q.** How did the IC50 [1, 2] turn out when `COc1ccc(Cn2nc(-c3nccc(Nc4nnc(N)[nH]4)n3)c3ccccc32)cc1` [Example 2-5-5, N-{2-[1-(4-methoxybenzyl)-1H-indazol-3-yl]pyrimidin-4-yl}-4H-1,2,4-triazole-3,5-diamine] was run?
**A.** 2800 nM

**Q.** How did the IC50 [1] turn out when `CCOc1cc(F)c(Cn2nc(-c3cc(Nc4ccncn4)ccn3)c3cnccc32)c(F)c1` [Example 2-5-4, N-{2-[1-(4-ethoxy-2,6-difluorobenzyl)-1H-pyrazolo[4,3-c]pyridin-3-yl]pyridin-4-yl}pyrimidin-4-amine] was run?
**A.** 220 nM

— US20160046610A1, “3-HETEROARYL SUBSTITUTED INDAZOLES” (BAYER PHARMA AKTIENGESELLSCHAFT, priority 2013, published 2016)
